{"source": "ChEMBL document CHEMBL1201862", "about": "“PubChem BioAssay data set” (2004)", "key": {"[1]": {"target": "E3 ubiquitin-protein ligase Mdm2 (Homo sapiens, UniProt Q00987)", "sequence (Q00987 whole entry)": "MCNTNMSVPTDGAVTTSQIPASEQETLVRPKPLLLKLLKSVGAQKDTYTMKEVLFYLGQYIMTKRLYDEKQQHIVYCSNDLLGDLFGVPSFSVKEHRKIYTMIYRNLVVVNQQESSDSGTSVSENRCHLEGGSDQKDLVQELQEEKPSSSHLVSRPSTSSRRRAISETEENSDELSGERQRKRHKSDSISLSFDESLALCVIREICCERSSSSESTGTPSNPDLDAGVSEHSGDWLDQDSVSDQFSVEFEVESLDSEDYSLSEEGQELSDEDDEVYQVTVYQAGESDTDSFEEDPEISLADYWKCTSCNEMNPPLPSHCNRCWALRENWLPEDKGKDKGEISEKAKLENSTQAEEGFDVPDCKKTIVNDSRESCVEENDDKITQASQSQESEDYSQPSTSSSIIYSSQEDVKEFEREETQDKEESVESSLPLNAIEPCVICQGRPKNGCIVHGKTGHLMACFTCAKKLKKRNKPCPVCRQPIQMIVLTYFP", "experiment": "enhancers of MDM2-luciferase reporter signal, concentration-effect titration, project on inhibitors of MDM2 ubiquitin ligase, cellular assay, luminescent readout, 384-well plate format (AID 1394);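 further: MDM2 E3 inhibitors raise luminescence so EC50 is for signal enhancement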", "format": "functional"}, "[2]": {"target": "Transthyretin (Homo sapiens, UniProt P02766)", "experiment": "Luminescence-based cell-based high throughput dose response assay to identify activators of Transthyretin (TTR) transcription.", "format": "functional"}, "[3]": {"experiment": "IGROV1 ovarian cancer cell cytotoxicity, dose response, PAX8 inhibitor project, plate reader, dry powder samples (AID 743043)", "format": "functional, cell-based", "conditions": "IGROV-1"}, "[4]": {"experiment": "IOSE-T80 ovarian epithelial cell cytotoxicity, dose response, cytotoxicity control for PAX8 inhibitor project, plate reader, dry powder samples (AID 743045)", "format": "functional, cell-based"}, "[5]": {"experiment": "A2780 ovarian cancer cell cytotoxicity, dose response, cytotoxicity control, plate reader, dry powder samples (AID 743046)", "format": "functional, cell-based"}, "[6]": {"target": "Paired box protein Pax-8 (Homo sapiens, UniProt Q06710)", "sequence (Q06710 whole entry)": "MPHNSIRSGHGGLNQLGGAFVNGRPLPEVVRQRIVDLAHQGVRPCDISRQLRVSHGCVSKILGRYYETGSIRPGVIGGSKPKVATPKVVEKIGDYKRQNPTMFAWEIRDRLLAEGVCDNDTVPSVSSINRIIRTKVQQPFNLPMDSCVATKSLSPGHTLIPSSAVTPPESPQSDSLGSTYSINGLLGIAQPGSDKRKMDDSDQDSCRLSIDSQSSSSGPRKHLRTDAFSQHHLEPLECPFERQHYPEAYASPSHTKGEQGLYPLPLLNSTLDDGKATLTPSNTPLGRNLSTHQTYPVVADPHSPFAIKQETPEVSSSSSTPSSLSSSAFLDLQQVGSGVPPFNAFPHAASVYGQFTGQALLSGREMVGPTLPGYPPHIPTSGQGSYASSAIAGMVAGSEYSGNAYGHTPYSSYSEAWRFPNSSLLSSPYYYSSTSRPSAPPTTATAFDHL", "experiment": "inhibitors of PAX8-driven TPO luciferase reporter, dose response, RMG-I cells, cherry-pick (AID 687027);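 further: luciferase reporter driven by Pax8 target thyroperoxidase promoter measured by SteadyGlo luminescence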", "format": "functional, cell-based"}, "[7]": {"experiment": "P. falciparum Dd2 growth inhibitors, dose response, SYBR Green, cherry-picked samples (AID 1159567)", "format": "functional, cell-based"}, "[8]": {"experiment": "HepG2 cell cytotoxicity, dose response, cytotoxicity control, cherry-picked samples (AID 1159577)", "format": "functional, cell-based"}, "[9]": {"experiment": "cytotoxicity in OVCAR8 ovarian cancer cells, dose response, PAX8 project, cell-based, plate reader, dry powder samples (AID 743197)", "format": "functional", "conditions": "OVCAR-8"}, "[10]": {"experiment": "NIH:OVCAR-3 ovarian cancer cell cytotoxicity, dose response, PAX8 inhibitor project, plate reader, dry powder samples (AID 743044)", "format": "functional, cell-based"}, "[11]": {"experiment": "half-maximal inhibitory concentration for glucagon-like peptide-1 release, STC-1 cell line, dose-response (AID 1117345)", "format": "functional, cell-based"}, "[12]": {"experiment": "Glucagon-like peptide 1 release potency, NCI-H716 cell line, dose-response, half-maximal inhibitory concentration (AID 1117344)", "format": "functional, cell-based"}, "[13]": {"experiment": "cells", "format": "functional, cell-based", "conditions": "INS-1E"}, "[14]": {"experiment": "Dose-response inhibition of insulin secretion in a rat insulinoma line at 5 mM glucose (AID 1117331)", "format": "functional, cell-based", "conditions": "INS-1E"}}, "note": "Activity calls are given as the source filed them.", "data": [{"smiles": "COc1ccccc1N1CCN(C(c2ccc(C)cc2)c2nnnn2C(C)C)CC1", "note": "(centres undefined)", "values": [{"measurement": "EC50", "setting": "[1]", "result": "14.5 µM (not active)"}]}, {"smiles": "CCn1ncc(/C=N\\NC(=O)c2csc3ccccc23)c1C", "values": [{"measurement": "EC50", "setting": "[2]", "result": "> 167 µM (inactive)"}]}, {"smiles": "O=C(Nc1cccc(F)c1)N1CCCCN2[C@@H](CO)[C@H](c3ccc(C#Cc4ccccc4)cc3)[C@@H]2C1", "values": [{"measurement": "AC50", "setting": "[3]", "result": "29.4 µM (active)"}, {"measurement": "AC50", "setting": "[4]", "result": "63.4 µM (active)"}, {"measurement": "AC50", "setting": "[5]", "result": "19.8 µM (active)"}, {"measurement": "AC50", "setting": "[6]", "result": "9.89 µM (active)"}, {"measurement": "AC50", "setting": "[7]", "result": "< 0.3 µM (active)"}, {"measurement": "AC50", "setting": "[8]", "result": "7.6 µM (active)"}, {"measurement": "AC50", "setting": "[9]", "result": "65.6 µM (active)"}, {"measurement": "AC50", "setting": "[10]", "result": "17.2 µM (active)"}]}, {"smiles": "Nc1cc(C(F)(F)F)ccc1S", "values": [{"measurement": "IC50", "setting": "[11]", "result": "1.16 µM (active)"}, {"measurement": "IC50", "setting": "[12]", "result": "15.3 µM (inactive)"}]}, {"smiles": "Nc1c2c(nc3ccccc13)CCCC2", "note": "[TACRINE]", "values": [{"measurement": "IC50", "setting": "[13]", "result": "> 33.3 µM (inactive)"}, {"measurement": "IC50", "setting": "[14]", "result": "17.6 µM (inactive)"}]}]}
